Values after ≈ are worked out from the molar mass of the structure shown. Read-outs that look alike come from different tables or passages of the source.
What was measured:
E. coli MC1061 = test: MIC determination; format: cell-based; conditions: Escherichia coli; Table 5; Mueller-Hinton medium; D = E. coli MC1061; read-out: MIC strain D
Gram-negative bacteria = test: MIC determination, panel statement; format: cell-based; conditions: moderate activity
Ab ATCC 19606 (strain I) = test: MIC determination (double dilution, Mueller-Hinton broth); format: cell-based, Acinetobacter baumannii; conditions: Acinetobacter baumannii, ATCC19606
Method: All bacterial strains listed above were stored at −80° C. All strains were streaked on Mueller-Hinton (MH) plates and allowed to grow at 37° C. overnight. […] The resulting culture was diluted 1:1000 and added to the prepared serially doubly diluted compound solutions in 96-well plates. For M. smegmatis, a 1:100 dilution of the bacteria was done in MH. All MIC values were determined using 96-well plates with low evaporation seals at least in duplicate. For each row, one well was reserved for sterile control (which consisted of 200 μL of MH medium) and another well was reserved for growth control (which consisted of 100 μL of MH medium seeded with 100 μL of bacterial culture).
(§1) Minimum inhibitory concentrations (MIC) of all compounds from the series were measured in liquid cultures of different Ab strains by a double-dilution method in Mueller-Hinton broth. Initially, the activity of all 46 compounds against Ab ATCC 19606 (a control strain) and Ab ATCC BAA1605 (a multidrug-resistant strain) (Table 1; data shown for 27 representative compounds) was measured.

[1] = system: all 43 strains of A. baumannii (41 CDC strains and 2 ATCC strains); test: MIC value statistics for all A. baumannii strains; format: cell-based, Acinetobacter baumannii; conditions: of 43 A. baumannii strains
Method: All bacterial strains listed above were stored at −80° C. All strains were streaked on Mueller-Hinton (MH) plates and allowed to grow at 37° C. overnight. Enough colonies were scraped from the plate and suspended in MH broth with vortexing to reach an attenuance at 600 nm (OD600) of ˜0.5. The resulting culture was diluted 1:1000 and added to the prepared serially doubly diluted compound solutions in 96-well plates. […]. For each row, one well was reserved for sterile control (which consisted of 200 μL of MH medium) and another well was reserved for growth control (which consisted of 100 μL of MH medium seeded with 100 μL of bacterial culture).
Having established that the observed activity is selective to A. baumannii, all synthesized compounds were tested against a panel of antibiotic resistant A. baumannii from the Antimicrobial Resistant (AR) Isolate Bank from the CDC along with strains I and J (Table Si). […]. Based on this statistical analysis, the best compound is 5e followed closely by 3e.

[2] = system: Ab ATCC BAA1605 (strain J, multidrug-resistant); test: MIC determination; format: cell-based; conditions: Acinetobacter baumannii
Method: All bacterial strains listed above were stored at −80° C. All strains were streaked on Mueller-Hinton (MH) plates and allowed to grow at 37° C. overnight. Enough colonies were scraped from the plate and suspended in MH broth with vortexing to reach an attenuance at 600 nm (OD600) of ˜0.5. The resulting culture was diluted 1:1000 and added to the prepared serially doubly diluted compound solutions in 96-well plates. For M. smegmatis, a 1:100 dilution of the bacteria was done in MH. All MIC values were determined using 96-well plates with low evaporation seals at least in duplicate. For each row, one well was reserved for sterile control (which consisted of 200 μL of MH medium) and another well was reserved for growth control (which consisted of 100 μL of MH medium seeded with 100 μL of bacterial culture).
as §1

K. pneumoniae ATCC 27736 = test: MIC determination; format: cell-based; conditions: Klebsiella pneumoniae, ATCC27736; Table 5; Mueller-Hinton medium; F = K. pneumoniae ATCC 27736; read-out: MIC strain F
P. aeruginosa ATCC 27853 = test: MIC determination; format: cell-based; conditions: Pseudomonas aeruginosa, ATCC27853; Table 5; Mueller-Hinton medium; G = P. aeruginosa ATCC 27853; read-out: MIC strain G
[3] = system: S. epidermidis ATCC 12228; test: MIC determination; format: cell-based; conditions: Staphylococcus epidermidis, ATCC12228; Table 5; Mueller-Hinton medium; C = S. epidermidis ATCC 12228; read-out: MIC strain C
B. anthracis Sterne F32 = test: microbe, parasite or virus in culture; format: cell-based; conditions: Bacillus anthracis, STERNEF32, read-out: MIC strain A
E. cloacae ATCC 13047 = test: MIC determination; format: cell-based; conditions: Enterobacter cloacae, ATCC13047; Table 5; Mueller-Hinton medium; E = E. cloacae ATCC 13047; read-out: MIC strain E
S. aureus ATCC 25923 = test: MIC determination; format: cell-based; conditions: Staphylococcus aureus, ATCC25923; Table 5; Mueller-Hinton medium; B = S. aureus ATCC 25923; read-out: MIC strain B
S. enterica ATCC 14028 = test: MIC determination; format: cell-based; conditions: Salmonella enterica, ATCC14028; Table 5; Mueller-Hinton medium; H = S. enterica ATCC 14028; read-out: MIC strain H
[4] = Table 1, control strain, read-out: MIC Ab ATCC 19606
[5] = Table 5, Mueller-Hinton medium, I = A. baumannii ATCC 19606, read-out: MIC strain I
[6] = Table 1, multidrug-resistant strain, read-out: MIC Ab ATCC BAA 1605
[7] = Table 5, Mueller-Hinton medium, J = A. baumannii BAA1605, read-out: MIC strain J

SMILES | MIC (E. coli MC1061) [µg/mL] | MIC (Ab ATCC 19606 (strain I); [4]) [µg/mL] | MIC (Ab ATCC 19606 (strain I); [5]) [µg/mL] | number of compound/strain combinations with MIC value 0.25 μg/mL [1] | number of compound/strain combinations with MIC value 0.5 μg/mL [1] | number of compound/strain combinations with MIC value 1 μg/mL [1] | number of compound/strain combinations with MIC value ≤0.125 μg/mL [1] | MIC [2, 6] [µg/mL] | MIC [2, 7] [µg/mL] | MIC (K. pneumoniae ATCC 27736) [µg/mL] | MIC (P. aeruginosa ATCC 27853) [µg/mL] | MIC [3] [µg/mL] | MIC (B. anthracis Sterne F32) [µg/mL] | MIC (E. cloacae ATCC 13047) [µg/mL] | MIC (S. aureus ATCC 25923) [µg/mL] | MIC (S. enterica ATCC 14028) [µg/mL] | also measured
O=C(NNc1ccc(Cl)cc1)c1ccc(F)cc1F [Compound 1e] | 16 (≈ 56.6 µM) | 0.25 (≈ 0.884 µM) | 0.25 (≈ 0.884 µM) | 17 | 12 | 5 | 8 | 0.25 (≈ 0.884 µM) | 0.25 (≈ 0.884 µM) | > 64 | > 64 | > 64 | > 64 | 16 (≈ 56.6 µM) | > 64 | > 64 | MIC (Gram-negative bacteria): 4 to 16 µg/mL (≈ 14.2 to 56.6 µM); number of compound/strain combinations with MIC value 2 μg/mL [1]: 1
O=C(NNc1cccc(F)c1)c1ccc(F)cn1 [Compound 3a] | 64 (≈ 257 µM) | 0.5 (≈ 2.01 µM) | 0.5 (≈ 2.01 µM) | 16 | 18 | – | 9 | 0.5 (≈ 2.01 µM) | 0.5 (≈ 2.01 µM) | > 64 | > 64 | > 64 | > 64 | > 64 | > 64 | > 64 | –
COc1cccc(NNC(=O)c2ccc(F)cn2)c1 [Compound 3c] | > 64 | 0.5 (≈ 1.91 µM) | 0.5 (≈ 1.91 µM) | 2 | 12 | 23 | 1 | 0.5 (≈ 1.91 µM) | 0.5 (≈ 1.91 µM) | > 64 | > 64 | 64 (≈ 245 µM) | > 64 | > 64 | > 64 | > 64 | number of compound/strain combinations with MIC value 2 μg/mL [1]: 5
O=C(NNc1ccc(F)cc1)c1ccc(F)cn1 [Compound 3d] | 64 (≈ 257 µM) | 0.5 (≈ 2.01 µM) | 0.5 (≈ 2.01 µM) | 10 | 19 | 13 | 1 | 0.25 (≈ 1 µM) | 0.25 (≈ 1 µM) | 64 (≈ 257 µM) | > 64 | > 64 | > 64 | 64 (≈ 257 µM) | > 64 | 64 (≈ 257 µM) | –
COc1ccc(NNC(=O)c2ccc(F)cn2)cc1 [Compound 3f] | > 64 | 1 (≈ 3.83 µM) | 1 (≈ 3.83 µM) | 1 | 2 | 9 | – | 0.5 (≈ 1.91 µM) | 0.5 (≈ 1.91 µM) | > 64 | > 64 | > 64 | > 64 | > 64 | > 64 | > 64 | number of compound/strain combinations with MIC value 2 μg/mL [1]: 19; number of compound/strain combinations with MIC value 4 μg/mL [1]: 11; number of compound/strain combinations with MIC value 8 μg/mL [1]: 1
O=C(NNc1ccc(Cl)cc1)c1ccc2ccccc2n1 [Compound 12e] | 16 (≈ 53.7 µM) | 0.5 (≈ 1.68 µM) | 0.5 (≈ 1.68 µM) | 7 | 19 | 17 | – | 0.5 (≈ 1.68 µM) | 0.5 (≈ 1.68 µM) | > 64 | > 64 | > 64 | > 64 | > 64 | > 64 | > 64 | –
CCOC(=O)CNNC(=O)c1ccc2ccccc2n1 [Compound 12g] | > 64 | – | > 64 | – | – | – | – | – | > 64 | > 64 | > 64 | > 64 | > 64 | > 64 | > 64 | > 64 | number of compound/strain combinations with MIC value >64 μg/mL [1]: 43
O=C(NNC1CCCCC1)c1ccc2ccccc2n1 [Compound 12h] | 64 (≈ 238 µM) | – | > 64 | – | – | – | – | – | > 64 | > 64 | > 64 | > 64 | > 64 | > 64 | > 64 | > 64 | number of compound/strain combinations with MIC value >64 μg/mL [1]: 43
O=C(NNc1ccc(Cl)cc1)c1cc2ccccc2[nH]1 [Compound 14e] | > 64 | – | 0.5 (≈ 1.75 µM) | 18 | 20 | 2 | 3 | – | 0.25 (≈ 0.875 µM) | > 64 | > 64 | > 64 | > 64 | > 64 | > 64 | > 64 | –
O=C(NNc1ccc(Cl)cc1)c1ccco1 [Compound 15e] | 16 (≈ 67.6 µM) | 0.5 (≈ 2.11 µM) | 0.5 (≈ 2.11 µM) | 18 | 10 | 2 | 13 | ≤ 0.125 | ≤ 0.125 | 16 (≈ 67.6 µM) | > 64 | 64 (≈ 270 µM) | > 64 | 4 (≈ 16.9 µM) | 64 (≈ 270 µM) | 16 (≈ 67.6 µM) | –
CCC(=O)NNc1ccc(Cl)cc1 [Compound 16e] | 16 (≈ 80.5 µM) | ≤ 0.25 | ≤ 0.125 | 17 | 10 | 1 | 15 | ≤ 0.125 | ≤ 0.125 | 16 (≈ 80.5 µM) | > 64 | > 64 | > 64 | 16 (≈ 80.5 µM) | > 64 | 64 (≈ 322 µM) | –
C=CC(=O)NNc1ccc(Cl)cc1 [Compound 17e] | 16 (≈ 81.4 µM) | 0.25 (≈ 1.27 µM) | 0.25 (≈ 1.27 µM) | 21 | 13 | – | 9 | 0.25 (≈ 1.27 µM) | 0.25 (≈ 1.27 µM) | 16 (≈ 81.4 µM) | > 64 | 64 (≈ 325 µM) | > 64 | 16 (≈ 81.4 µM) | 64 (≈ 325 µM) | 16 (≈ 81.4 µM) | –

Reference: patent US20260041683A1, “Compounds with Anti-Acinetobacter Baumannii Activity” (University of Kentucky Research Foundation, priority 2022, published 2026)
